Target: T1, PPARα (Homo sapiens, UniProt Q07869)
T1 construct: expressed in transfected cells; host or cells: HepG2
T1 sequence (Q07869 239-466 limits assumed): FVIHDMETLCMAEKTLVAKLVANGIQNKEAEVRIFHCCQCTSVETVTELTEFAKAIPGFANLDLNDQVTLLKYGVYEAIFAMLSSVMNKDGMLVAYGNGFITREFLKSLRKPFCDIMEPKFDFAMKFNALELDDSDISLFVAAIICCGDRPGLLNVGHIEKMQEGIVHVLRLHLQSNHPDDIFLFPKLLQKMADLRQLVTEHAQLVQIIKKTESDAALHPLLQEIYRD
Assay: Gal4/PPARα transactivation system in HepG2 cells (luciferase reporter)
Type: cell-based
Details: HepG2 cells transfected with Gal4/PPARα plasmids, 24 h
Protocol: PPAR activation was tested in vitro in RK13 fibroblast cell lines or in a hepatocyte line HepG2 by measuring the transcriptional activity of chimeras composed of the DNA binding domain of the yeast gal4 transcription factor and the ligand binding domain of the different PPARs. The example below is given for HepG2 cells.
HepG2 cells were from ECACC (Porton Down, UK) and were grown in DMEM medium supplemented with 10% (VN) fetal calf serum, 100 U/ml penicillin (Gibco, Paisley, UK) and 2 mM L-glutamine (Gibco, Paisley, UK). The culture medium was changed every two days. Cells were kept at 37° C. in a humidified 95% air/5% CO2 atmosphere.
The plasmids pG5TkpGL3, PRL-CMV, pGal4-hPPARα, pGal4-hPPARγ and pGal4-f have been described by Raspe et al. (Raspe, Madsen et al. 1999). The pGal4-mPPARα and pGal4-hPPARβ constructs were obtained by cloning PCR-amplified DNA fragments corresponding to the DEF domains of the mouse PPARα and […] nuclear receptors, respectively, into the pGal4-f vector.
HepG2 cells were seeded in 24-well culture dishes at 5×10^4 cells/well and transfected for 2 hours with the reporter plasmid pG5TkpGL3 (50 ng/well), the expression vectors pGal4-f, pGal4-mPPARα, pGal4-hPPARα, pGal4-hPPARγ, or pGal4-hPPARβ (100 ng/well) and the transfection efficiency control vector pRL-CMV (1 ng/well) according to the previously described protocol (Raspe, Madsen et al. 1999), then incubated for 36 hours with the test compounds. At the end of the experiment, the cells were lysed (Gibco, Paisley, UK) and luciferase activity was determined with a Dual-Luciferase™ Reporter Assay System kit (Promega, Madison, Wis., USA) according to the supplier's instructions. The protein content of the cell extracts was then measured with the Bio-Rad Protein Assay kit (Bio-Rad, Munich, Germany) as directed by the supplier. […] FIG. 3 gives an example of the results obtained with the inventive compounds.
FIG. 3: HepG2 cells transfected with Gal4/PPARα plasmids were incubated with different concentrations (5, 15, 50 and 100 μM) of the inventive comopunds (Ex 2a, Ex 4a, Ex 4p, Ex 5a, Ex 7 and Ex 11) for 24 h and with different concentrations of the vehicle (PC) noted 1, 2, 3, 4 as controls for the 5, 15, 50 and 100 μM concentrations of the inventive compounds (according to the 4:1 (m/m) ratio described in example 2 (Method of preparation of the inventive compounds for in vitro studies)). The results are expressed as the induction factor (luminescent signal of treated cells divided by luminescent signal of untreated cells) after the different treatments. […] The induction factors for inventive compound Ex 4p were 35 at 100 μM, 44 at 50 μM, 36 at 15 μM and 24 at 5 μM. The induction factors for compound Ex 5a were 32 at 100 μM, 34 at 50 μM, 15 at 15 μM and 4 at 5 μM. Finally, inventive compound Ex 7 induced a 19-fold induction at 100 μM, 19 at 50 μM, 7 at 15 μM and 1.5 at 5 μM. In contrast, when the cells were incubated with the vehicle (PC liposome), no significant induction was observed.

For `CCCCCCCCCCCCCCSCC(=O)OCC(COC(=O)CSCCCCCCCCCCCCCC)OC(=O)CSCCCCCCCCCCCCCC` [Ex 4a, 1,2,3-tritetradecylthioacetylglycerol], which “induction factor (luminescent signal of treated cells divided by luminescent signal of untreated cells)” value (5 μM) is on record?
Its value is 6 fold.

What about the “induction factor (luminescent signal of treated cells divided by luminescent signal of untreated cells)” value (15 μM) of the same molecule?
Its value is 15 fold.

What about the “induction factor (luminescent signal of treated cells divided by luminescent signal of untreated cells)” value (50 μM) of the same molecule?
The value was 23 fold.

What about the “induction factor (luminescent signal of treated cells divided by luminescent signal of untreated cells)” value (100 μM) of the same molecule?
Its value is 33 fold.

Source: patent publication US20060154984A1, “Therapeutic use of acyl glycerols and the nitrogen- and sulphur- containing analogues thereof” (priority 2003, published 2006)
